Results on 6 compounds are retold here after ChEMBL document CHEMBL2176888, “Structure-activity relationships in human Toll-like receptor 8-active 2,3-diamino-furo[2,3-c]pyridines” (J Med Chem, 2012).

pEC50: −log10 of the molar value. Calls of active or inactive are those of the source. The calls are words filed in the database; no cut-off is given here.

In series [1] the test system is PBMC. Kind of series: Induction of proinflammatory cytokine release in human PBMC after 12 hrs. It is filed as cell-based.
Series [2] concerns the target T1, Toll-like receptor 8 (Homo sapiens, UniProt Q9NR97).
T1 sequence (Q9NR97 whole entry): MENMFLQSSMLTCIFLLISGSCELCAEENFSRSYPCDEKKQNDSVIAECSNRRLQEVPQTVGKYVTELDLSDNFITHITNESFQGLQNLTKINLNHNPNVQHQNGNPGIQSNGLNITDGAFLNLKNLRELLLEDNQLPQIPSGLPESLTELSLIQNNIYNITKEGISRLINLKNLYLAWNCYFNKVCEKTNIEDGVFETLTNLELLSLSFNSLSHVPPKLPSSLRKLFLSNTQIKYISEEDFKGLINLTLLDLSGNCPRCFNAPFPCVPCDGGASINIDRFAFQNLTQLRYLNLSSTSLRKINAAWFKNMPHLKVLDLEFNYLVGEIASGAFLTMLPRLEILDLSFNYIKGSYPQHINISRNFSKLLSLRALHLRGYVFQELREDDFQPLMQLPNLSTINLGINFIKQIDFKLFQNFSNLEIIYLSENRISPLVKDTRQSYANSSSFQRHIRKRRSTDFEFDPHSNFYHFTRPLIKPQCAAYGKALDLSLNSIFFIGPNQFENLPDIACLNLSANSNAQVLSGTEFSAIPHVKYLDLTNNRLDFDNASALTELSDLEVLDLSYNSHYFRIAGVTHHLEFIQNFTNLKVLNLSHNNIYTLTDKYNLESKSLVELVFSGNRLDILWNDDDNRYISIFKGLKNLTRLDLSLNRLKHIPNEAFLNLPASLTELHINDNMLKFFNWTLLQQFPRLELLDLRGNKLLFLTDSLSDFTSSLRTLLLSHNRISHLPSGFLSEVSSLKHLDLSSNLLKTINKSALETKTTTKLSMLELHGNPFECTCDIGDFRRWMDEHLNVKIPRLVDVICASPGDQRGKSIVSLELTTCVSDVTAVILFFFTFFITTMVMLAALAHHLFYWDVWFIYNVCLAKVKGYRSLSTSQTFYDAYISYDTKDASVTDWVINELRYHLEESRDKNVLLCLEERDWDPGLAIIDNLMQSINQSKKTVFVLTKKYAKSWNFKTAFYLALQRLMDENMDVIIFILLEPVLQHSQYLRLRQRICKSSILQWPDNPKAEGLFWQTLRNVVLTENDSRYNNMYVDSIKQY
Kind of series: (§1) Agonist activity at human TLR8 expressed in HEK293 cells assessed as induction of NF-kappaB activity by measuring extracellular secreted alkaline phosphatase by HEK-blue reporter gene assay. The series is classed as functional, cell-based. The conditions noted are these: read-out: EC50. Background: In a reporter assay the amount or activity of a reporter protein is the signal.

In series [3] the target is T2, Toll-like receptor 8 (Homo sapiens) (UniProt Q9NR97).
T2 sequence (whole entry): T1 sequence (Q9NR97 whole entry)
The series is described as §1. The series is classed as functional, cell-based.

Series [4] relates to PBMC. Description: Induction of transcriptional signature of inflammatory gene expression in human PBMC cells after 2 hrs. It is filed as cell-based.
The test system of series [5] is PBMC. Kind of series: Up-regulation of CCL gene in human PBMC cells after 2 hrs. The series is classed as cell-based.
The subject of series [6] is PBMC. Description: Up-regulation of CXCL gene in human PBMC cells after 2 hrs. It is filed as cell-based.
The species entered for series [7] is Oryctolagus cuniculus. Description: Adjuvantic activity in New Zealand White rabbit immunized with bovine alpha-lactalbumin on day 1, 15, and 28 assessed as anti-alpha-lactalbumin IgG level in serum at 100 ug measured on day 38 by ELISA. It is filed as functional, organism-based. For orientation: ELISA stands for enzyme-linked immunosorbent assay.
For series [8], the target named is T2, Toll-like receptor 8 (Homo sapiens). Description: Agonist activity at human TLR8 expressed in HEK293 cells assessed as induction of NF-kappaB activity by measuring extracellular secreted alkaline phosphatase up to 250 uM by HEK-blue reporter gene assay. The series is classed as functional, cell-based.
Series [9] concerns the target T3, Toll-like receptor 7 (Homo sapiens) (UniProt Q9NYK1).
T3 sequence (whole entry): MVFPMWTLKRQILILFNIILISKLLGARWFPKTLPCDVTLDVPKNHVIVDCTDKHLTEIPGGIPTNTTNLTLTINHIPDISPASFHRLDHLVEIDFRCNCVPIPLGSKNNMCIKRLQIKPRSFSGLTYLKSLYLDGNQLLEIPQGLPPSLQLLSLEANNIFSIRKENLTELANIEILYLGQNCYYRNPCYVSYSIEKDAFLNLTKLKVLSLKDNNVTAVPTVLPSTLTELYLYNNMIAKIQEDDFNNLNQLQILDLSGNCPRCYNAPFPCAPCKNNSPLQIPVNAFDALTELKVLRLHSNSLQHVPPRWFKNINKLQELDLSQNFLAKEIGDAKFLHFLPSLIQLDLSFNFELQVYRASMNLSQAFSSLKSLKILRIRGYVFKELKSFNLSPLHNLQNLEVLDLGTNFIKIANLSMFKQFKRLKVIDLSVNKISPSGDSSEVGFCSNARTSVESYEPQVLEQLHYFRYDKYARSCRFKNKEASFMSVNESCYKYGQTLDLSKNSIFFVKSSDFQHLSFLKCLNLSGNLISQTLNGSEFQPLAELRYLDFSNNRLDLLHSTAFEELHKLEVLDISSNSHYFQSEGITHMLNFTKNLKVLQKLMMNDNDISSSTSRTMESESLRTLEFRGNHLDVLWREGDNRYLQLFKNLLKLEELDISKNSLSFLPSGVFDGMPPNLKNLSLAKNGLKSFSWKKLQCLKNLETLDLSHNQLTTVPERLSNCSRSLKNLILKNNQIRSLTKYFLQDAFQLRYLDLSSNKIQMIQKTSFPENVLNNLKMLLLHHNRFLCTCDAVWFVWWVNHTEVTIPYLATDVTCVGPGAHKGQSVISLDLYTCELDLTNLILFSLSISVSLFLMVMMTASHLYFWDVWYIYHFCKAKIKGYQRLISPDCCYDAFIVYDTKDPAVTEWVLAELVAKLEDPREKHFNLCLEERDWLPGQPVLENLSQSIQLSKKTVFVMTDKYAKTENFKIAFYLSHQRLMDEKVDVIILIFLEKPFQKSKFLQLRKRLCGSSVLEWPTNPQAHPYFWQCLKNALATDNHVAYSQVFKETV
Description: Agonist activity at human TLR7 expressed in HEK293 cells assessed as induction of NF-kappaB activity by measuring extracellular secreted alkaline phosphatase up to 250 uM by HEK-blue reporter gene assay. It is filed as functional, cell-based.

The target in series [10] is T4, Toll-like receptor 9 (Homo sapiens) (UniProt Q9NR96).
T4 sequence (whole entry): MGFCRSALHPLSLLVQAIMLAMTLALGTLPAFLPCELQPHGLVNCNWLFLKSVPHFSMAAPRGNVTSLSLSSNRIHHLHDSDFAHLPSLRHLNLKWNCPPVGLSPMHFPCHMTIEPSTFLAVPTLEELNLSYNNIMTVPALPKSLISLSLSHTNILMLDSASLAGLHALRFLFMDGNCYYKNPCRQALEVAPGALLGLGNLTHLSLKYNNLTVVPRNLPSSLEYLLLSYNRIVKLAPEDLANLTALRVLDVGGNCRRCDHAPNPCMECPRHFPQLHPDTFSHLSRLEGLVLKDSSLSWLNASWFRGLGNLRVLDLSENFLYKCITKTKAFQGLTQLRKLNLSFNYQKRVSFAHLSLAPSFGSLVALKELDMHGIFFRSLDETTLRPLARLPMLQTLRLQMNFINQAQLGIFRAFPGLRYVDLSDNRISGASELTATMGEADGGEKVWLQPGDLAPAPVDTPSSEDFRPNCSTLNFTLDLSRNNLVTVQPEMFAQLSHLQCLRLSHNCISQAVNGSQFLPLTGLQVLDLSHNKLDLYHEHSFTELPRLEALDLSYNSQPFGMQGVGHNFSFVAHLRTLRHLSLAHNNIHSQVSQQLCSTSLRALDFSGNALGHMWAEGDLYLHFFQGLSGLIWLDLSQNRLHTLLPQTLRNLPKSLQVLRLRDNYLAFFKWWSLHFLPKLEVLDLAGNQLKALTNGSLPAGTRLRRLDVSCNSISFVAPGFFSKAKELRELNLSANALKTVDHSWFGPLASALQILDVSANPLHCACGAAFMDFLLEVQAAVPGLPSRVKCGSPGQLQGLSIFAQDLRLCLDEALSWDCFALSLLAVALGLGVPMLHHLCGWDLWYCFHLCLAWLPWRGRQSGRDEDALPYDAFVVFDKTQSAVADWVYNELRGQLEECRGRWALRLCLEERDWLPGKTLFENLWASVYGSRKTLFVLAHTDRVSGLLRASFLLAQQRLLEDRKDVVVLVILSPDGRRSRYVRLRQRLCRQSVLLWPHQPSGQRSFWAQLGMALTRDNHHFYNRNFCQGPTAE
Kind of series: Agonist activity at human TLR9 expressed in HEK293 cells assessed as induction of NF-kappaB activity by measuring extracellular secreted alkaline phosphatase up to 250 uM by HEK-blue reporter gene assay. The series is classed as functional, cell-based.

Series [11] addresses Toll-like receptor 5 (Homo sapiens) (UniProt O60602). Description: Agonist activity at human TLR5 expressed in HEK293 cells assessed as induction of NF-kappaB activity by measuring extracellular secreted alkaline phosphatase up to 250 uM by HEK-blue reporter gene assay. The series is classed as functional, cell-based.
Series [12] deals with Toll-like receptor 3 (Homo sapiens) (UniProt O15455). Description: Agonist activity at human TLR3 expressed in HEK293 cells assessed as induction of NF-kappaB activity by measuring extracellular secreted alkaline phosphatase up to 250 uM by HEK-blue reporter gene assay. The series is classed as functional, cell-based.
Toll-like receptor 3 (Homo sapiens), sequence (O15455 whole entry): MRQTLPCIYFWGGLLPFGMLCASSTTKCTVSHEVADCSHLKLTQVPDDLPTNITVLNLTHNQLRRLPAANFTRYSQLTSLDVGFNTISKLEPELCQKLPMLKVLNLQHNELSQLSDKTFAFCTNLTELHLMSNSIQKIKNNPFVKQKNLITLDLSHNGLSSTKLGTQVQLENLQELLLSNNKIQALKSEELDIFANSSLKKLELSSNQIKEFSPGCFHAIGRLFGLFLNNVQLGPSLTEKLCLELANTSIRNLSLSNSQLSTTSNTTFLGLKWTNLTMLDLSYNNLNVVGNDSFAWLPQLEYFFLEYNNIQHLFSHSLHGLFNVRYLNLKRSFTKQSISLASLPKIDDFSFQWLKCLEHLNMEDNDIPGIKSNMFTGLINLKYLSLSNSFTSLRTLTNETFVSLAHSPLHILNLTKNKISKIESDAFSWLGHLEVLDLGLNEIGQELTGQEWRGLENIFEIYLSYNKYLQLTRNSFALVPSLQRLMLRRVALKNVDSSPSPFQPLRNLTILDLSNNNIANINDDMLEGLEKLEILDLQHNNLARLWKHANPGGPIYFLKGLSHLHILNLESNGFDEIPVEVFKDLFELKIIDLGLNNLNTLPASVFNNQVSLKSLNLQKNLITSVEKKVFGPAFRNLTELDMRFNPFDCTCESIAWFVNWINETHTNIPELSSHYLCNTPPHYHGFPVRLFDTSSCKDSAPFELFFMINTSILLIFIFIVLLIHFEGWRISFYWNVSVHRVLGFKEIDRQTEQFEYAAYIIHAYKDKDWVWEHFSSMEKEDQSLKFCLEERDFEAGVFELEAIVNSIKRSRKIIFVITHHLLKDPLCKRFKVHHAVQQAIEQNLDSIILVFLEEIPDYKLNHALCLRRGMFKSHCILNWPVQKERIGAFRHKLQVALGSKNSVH
Series [13] concerns the target Toll-like receptor 4 (Homo sapiens) (UniProt O00206). Description: Agonist activity at human TLR4 expressed in HEK293 cells assessed as induction of NF-kappaB activity by measuring extracellular secreted alkaline phosphatase up to 250 uM by HEK-blue reporter gene assay. It is filed as functional, cell-based.

Toll-like receptor 5 (Homo sapiens), sequence (O60602 whole entry): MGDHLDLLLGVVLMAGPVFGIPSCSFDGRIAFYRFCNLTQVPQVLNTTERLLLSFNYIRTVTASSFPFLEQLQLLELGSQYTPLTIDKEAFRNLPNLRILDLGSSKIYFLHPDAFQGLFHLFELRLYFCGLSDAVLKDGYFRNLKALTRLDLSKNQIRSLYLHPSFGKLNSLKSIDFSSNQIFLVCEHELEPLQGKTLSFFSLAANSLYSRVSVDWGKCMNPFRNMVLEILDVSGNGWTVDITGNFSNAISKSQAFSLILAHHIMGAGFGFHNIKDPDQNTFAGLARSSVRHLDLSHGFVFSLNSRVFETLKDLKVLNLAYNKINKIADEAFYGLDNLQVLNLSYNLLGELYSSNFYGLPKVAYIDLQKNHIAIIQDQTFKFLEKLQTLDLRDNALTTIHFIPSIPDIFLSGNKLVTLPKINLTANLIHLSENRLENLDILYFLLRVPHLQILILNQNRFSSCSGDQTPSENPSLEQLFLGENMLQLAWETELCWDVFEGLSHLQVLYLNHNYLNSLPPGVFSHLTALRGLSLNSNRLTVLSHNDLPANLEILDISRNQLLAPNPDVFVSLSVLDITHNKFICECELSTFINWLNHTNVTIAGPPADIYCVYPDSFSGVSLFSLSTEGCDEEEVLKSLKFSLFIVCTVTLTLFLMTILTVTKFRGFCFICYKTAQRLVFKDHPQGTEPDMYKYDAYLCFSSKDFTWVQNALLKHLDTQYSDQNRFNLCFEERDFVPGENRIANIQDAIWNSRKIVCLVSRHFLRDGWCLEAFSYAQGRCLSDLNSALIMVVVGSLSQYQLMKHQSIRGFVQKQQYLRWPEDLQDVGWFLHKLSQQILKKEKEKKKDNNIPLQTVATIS
Toll-like receptor 4 (Homo sapiens), sequence (O00206 whole entry): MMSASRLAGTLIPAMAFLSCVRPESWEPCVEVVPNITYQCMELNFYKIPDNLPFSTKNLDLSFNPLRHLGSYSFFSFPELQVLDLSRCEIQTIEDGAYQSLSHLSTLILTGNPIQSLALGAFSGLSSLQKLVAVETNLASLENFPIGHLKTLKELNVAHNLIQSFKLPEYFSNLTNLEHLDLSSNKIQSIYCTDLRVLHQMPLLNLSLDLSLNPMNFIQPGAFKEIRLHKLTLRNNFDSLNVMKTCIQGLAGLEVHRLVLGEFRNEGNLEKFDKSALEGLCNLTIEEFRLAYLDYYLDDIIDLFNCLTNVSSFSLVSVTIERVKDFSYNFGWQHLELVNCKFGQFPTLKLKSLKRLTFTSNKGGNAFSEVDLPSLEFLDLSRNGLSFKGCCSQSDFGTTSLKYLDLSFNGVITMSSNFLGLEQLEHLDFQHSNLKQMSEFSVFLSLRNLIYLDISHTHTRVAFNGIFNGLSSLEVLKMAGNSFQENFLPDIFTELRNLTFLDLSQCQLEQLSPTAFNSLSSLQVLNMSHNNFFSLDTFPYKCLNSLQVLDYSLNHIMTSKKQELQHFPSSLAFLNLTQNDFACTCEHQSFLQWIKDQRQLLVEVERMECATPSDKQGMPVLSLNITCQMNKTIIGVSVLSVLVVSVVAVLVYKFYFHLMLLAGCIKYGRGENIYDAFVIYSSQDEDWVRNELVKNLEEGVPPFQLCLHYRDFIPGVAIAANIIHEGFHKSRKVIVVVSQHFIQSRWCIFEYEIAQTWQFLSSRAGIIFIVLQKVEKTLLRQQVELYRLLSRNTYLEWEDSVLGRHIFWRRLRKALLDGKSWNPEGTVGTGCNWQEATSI

As to `CCCc1nc2c(N)nc3ccccc3c2s1`, the Activity entry in [1] is given as “Toxic”.
A word on the pEC50: it is the negative decadic logarithm of the EC50, by convention in mol/L. Take `Cc1ncc(CO)c2c(Nc3ccccn3)c(NCc3ccccc3)oc12`: the pEC50 in series [2] was 5.31. The Activity result in series [3] is “Dose-dependent effect”; in [1] it was “Non-toxic”.
`Cc1ncc(CO)c2c(Nc3ccccn3)c(NC[Si](C)(C)C)oc12`: the Activity result was “Non-toxic” in series [4]; “Toxic” in series [5]; “Dose-dependent effect” in [3]; “Non-toxic” in series [1]; “Toxic” in series [6]. Further, in series [2], the pEC50 was 5.30.
`CCCCCNc1oc2c(C)ncc(CO)c2c1Nc1ccccn1`: the Activity result in series [4] is “Non-toxic”; in series [5] it was “Toxic”; in series [3], “Dose-dependent effect”; in [1] it was “Non-toxic”; in series [6], “Toxic”. The pEC50 in series [2] is 5.24. For the same compound, the outcome in series [7] was Active.
`Nc1nccn2c(NC3CCCCC3)c(-c3ccc(-c4ccccc4)cc3)nc12`: the result in series [8], in series [9], in series [10], in [11], in [12] and in series [13] was inactive.
Take `CCCCNc1oc2c(C)ncc(CO)c2c1Nc1ccccn1`: the pEC50 in series [2] is 5.03. Moreover, the results for the Activity entry in series [3] and in series [1] were “Dose-dependent effect” and “Non-toxic”, respectively.
